What was measured:
Test in all cases: biochemical
Parameters in all cases: KINOMEscan competition binding panel (Eurofins DiscoverX), single concentration, percent inhibition
Details in all cases: read-out: 15 at 1 µM % inhibition
[1] = molecular target: PKN2 (Homo sapiens, UniProt Q16513)
Summary of the method: (§1)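 Values come from single-concentration (1 µM) profiling in the Eurofins DiscoverX KINOMEscan competition-binding platform, which covers over 400 kinases.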

[2] = molecular target: T1, ADCK4 (Homo sapiens, UniProt Q96D53)
T1 construct: gene COQ8B
T1 sequence (Q96D53 whole entry): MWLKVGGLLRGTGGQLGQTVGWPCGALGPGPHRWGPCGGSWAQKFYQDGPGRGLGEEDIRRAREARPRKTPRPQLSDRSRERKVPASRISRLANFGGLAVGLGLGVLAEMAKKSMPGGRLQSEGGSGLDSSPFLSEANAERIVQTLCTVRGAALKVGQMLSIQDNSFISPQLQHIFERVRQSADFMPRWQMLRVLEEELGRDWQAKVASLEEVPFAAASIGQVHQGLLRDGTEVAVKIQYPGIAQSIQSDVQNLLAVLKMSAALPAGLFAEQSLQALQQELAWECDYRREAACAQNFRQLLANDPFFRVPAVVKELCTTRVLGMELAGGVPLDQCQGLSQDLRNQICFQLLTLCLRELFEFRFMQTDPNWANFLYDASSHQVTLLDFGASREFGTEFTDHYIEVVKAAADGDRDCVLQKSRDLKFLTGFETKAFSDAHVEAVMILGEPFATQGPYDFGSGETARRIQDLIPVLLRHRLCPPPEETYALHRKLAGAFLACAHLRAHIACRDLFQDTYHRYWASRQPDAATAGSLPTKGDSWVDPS
Summary of the method: as §1

[3] = molecular target: MAP4K3 (Homo sapiens, UniProt Q8IVH8)
MAP4K3, sequence (Q8IVH8 whole entry): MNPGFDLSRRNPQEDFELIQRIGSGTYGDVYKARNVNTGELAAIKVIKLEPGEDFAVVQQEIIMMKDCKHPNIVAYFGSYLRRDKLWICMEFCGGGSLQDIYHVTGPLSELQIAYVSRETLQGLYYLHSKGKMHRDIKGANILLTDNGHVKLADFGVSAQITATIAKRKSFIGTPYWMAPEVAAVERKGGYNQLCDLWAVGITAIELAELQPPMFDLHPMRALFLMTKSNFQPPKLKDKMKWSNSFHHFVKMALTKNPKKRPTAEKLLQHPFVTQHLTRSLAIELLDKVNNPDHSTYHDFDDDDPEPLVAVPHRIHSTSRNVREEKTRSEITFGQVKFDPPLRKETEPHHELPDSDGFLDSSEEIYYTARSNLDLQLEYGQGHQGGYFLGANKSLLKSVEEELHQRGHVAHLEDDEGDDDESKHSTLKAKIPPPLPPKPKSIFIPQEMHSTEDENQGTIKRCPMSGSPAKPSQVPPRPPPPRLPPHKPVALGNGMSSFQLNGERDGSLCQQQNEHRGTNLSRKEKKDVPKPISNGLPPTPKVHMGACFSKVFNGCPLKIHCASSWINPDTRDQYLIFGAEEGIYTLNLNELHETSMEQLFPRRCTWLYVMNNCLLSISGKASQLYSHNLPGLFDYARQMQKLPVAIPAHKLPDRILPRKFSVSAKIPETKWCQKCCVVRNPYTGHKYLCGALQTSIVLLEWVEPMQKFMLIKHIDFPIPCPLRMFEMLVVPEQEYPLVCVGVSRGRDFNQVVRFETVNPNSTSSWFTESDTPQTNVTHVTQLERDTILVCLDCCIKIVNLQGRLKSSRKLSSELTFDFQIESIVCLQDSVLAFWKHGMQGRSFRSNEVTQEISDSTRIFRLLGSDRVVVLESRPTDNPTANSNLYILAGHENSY
Summary of the method: as §1

[4] = molecular target: EPHA7 (Homo sapiens, UniProt Q15375)
Summary of the method: as §1

[5] = molecular target: T2, DRAK2 (Homo sapiens, UniProt O94768)
T2 construct: gene STK17B
T2 sequence (O94768 whole entry): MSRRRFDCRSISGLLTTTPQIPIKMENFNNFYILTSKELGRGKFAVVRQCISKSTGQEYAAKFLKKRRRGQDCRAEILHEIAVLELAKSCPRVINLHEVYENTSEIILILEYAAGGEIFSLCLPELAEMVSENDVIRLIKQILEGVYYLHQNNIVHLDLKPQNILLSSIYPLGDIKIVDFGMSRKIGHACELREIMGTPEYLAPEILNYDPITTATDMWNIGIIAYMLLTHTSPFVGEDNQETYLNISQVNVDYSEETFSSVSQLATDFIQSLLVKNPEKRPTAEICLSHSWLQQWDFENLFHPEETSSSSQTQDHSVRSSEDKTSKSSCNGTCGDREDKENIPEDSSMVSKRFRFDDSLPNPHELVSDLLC
Summary of the method: as §1

[6] = molecular target: T3, YSK4 (Homo sapiens, UniProt Q56UN5)
T3 construct: gene MAP3K19
Summary of the method: as §1

[7] = molecular target: MAP3K2 (Homo sapiens, UniProt Q9Y2U5)
Summary of the method: as §1

[8] = molecular target: TAOK3 (Homo sapiens, UniProt Q9H2K8)
Summary of the method: as §1

[9] = molecular target: PIK3CA(E542K) (Homo sapiens, UniProt P42336, E542K)
Summary of the method: as §1

[10] = molecular target: PLK1 (Homo sapiens, UniProt P53350)
Summary of the method: as §1

[11] = molecular target: STK39 (Homo sapiens, UniProt Q9UEW8)
Summary of the method: as §1

[12] = molecular target: AURKA (Homo sapiens, UniProt O14965)
AURKA, sequence (O14965 whole entry): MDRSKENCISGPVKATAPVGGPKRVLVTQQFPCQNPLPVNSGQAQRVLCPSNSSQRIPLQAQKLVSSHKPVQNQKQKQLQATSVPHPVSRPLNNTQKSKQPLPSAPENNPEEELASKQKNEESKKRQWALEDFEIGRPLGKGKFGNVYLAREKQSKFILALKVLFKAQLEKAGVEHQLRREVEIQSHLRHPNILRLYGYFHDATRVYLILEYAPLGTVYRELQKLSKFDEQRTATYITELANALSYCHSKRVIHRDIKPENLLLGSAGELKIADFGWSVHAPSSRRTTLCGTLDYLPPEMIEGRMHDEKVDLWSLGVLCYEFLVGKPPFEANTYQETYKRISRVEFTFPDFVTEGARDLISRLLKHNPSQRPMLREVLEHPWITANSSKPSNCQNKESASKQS
Summary of the method: as §1

[13] = molecular target: TBK1 (Homo sapiens, UniProt Q9UHD2)
Summary of the method: as §1

[14] = molecular target: ROCK1 (Homo sapiens, UniProt Q13464)
Summary of the method: as §1

[15] = molecular target: WNK2 (Homo sapiens, UniProt Q9Y3S1)
Summary of the method: as §1

[16] = molecular target: RIOK2 (Homo sapiens, UniProt Q9BVS4)
RIOK2, sequence (Q9BVS4 whole entry): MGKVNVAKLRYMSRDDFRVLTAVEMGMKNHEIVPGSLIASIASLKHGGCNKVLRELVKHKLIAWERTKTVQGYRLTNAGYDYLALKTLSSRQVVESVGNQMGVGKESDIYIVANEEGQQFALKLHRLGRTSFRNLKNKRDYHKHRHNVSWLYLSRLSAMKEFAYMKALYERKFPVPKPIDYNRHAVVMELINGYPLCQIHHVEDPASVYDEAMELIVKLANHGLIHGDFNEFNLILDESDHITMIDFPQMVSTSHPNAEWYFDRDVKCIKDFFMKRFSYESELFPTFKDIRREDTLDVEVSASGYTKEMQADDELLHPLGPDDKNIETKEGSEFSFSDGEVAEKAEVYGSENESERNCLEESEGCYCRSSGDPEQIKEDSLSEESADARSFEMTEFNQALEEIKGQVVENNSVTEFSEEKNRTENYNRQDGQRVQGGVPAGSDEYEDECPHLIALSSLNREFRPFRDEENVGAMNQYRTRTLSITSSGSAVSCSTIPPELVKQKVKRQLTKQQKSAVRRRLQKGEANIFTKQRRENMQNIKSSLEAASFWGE
Summary of the method: as §1

[17] = molecular target: KIT(L576P) (Homo sapiens, UniProt P10721, L576P)
Summary of the method: as §1

[18] = molecular target: T4, RSK2(Kin.Dom.2-C-terminal) (Homo sapiens, UniProt P51812)
T4 construct: gene RPS6KA3; Kin.Dom.2-C-terminal
Summary of the method: as §1

[19] = molecular target: CLK2 (Homo sapiens, UniProt P49760)
CLK2, sequence (P49760 whole entry): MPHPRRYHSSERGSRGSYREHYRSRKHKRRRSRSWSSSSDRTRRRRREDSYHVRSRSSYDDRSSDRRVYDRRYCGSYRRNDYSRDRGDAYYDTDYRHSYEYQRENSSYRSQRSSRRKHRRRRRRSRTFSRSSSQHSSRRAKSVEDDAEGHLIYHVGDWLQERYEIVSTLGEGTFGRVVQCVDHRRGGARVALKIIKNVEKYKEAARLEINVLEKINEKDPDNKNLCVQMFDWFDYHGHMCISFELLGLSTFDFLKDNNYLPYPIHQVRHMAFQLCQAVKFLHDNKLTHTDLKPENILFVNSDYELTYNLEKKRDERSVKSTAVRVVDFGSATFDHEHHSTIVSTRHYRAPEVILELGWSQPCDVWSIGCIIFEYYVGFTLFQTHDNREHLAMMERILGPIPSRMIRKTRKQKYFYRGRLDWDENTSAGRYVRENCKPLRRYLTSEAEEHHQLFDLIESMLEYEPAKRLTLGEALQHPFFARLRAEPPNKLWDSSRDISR
Summary of the method: as §1

[20] = molecular target: CSNK1A1L (Homo sapiens, UniProt Q8N752)
Summary of the method: as §1

[21] = molecular target: T5, PCTK1 (Homo sapiens, UniProt Q00536)
T5 construct: gene CDK16
T5 sequence (Q00536 whole entry): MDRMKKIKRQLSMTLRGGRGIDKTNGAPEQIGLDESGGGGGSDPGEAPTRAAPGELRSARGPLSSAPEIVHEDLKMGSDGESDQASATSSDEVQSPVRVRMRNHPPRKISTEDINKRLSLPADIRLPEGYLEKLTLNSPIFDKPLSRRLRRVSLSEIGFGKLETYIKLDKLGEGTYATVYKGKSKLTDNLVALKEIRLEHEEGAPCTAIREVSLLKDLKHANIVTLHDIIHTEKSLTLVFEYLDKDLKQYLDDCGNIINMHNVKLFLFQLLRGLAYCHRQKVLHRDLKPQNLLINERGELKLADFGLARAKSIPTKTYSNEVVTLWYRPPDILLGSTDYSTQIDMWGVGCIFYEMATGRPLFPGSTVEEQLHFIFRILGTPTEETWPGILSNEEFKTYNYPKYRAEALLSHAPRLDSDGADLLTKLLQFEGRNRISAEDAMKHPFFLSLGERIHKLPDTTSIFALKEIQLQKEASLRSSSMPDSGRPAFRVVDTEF
Summary of the method: as §1

[22] = molecular target: PHKG2 (Homo sapiens, UniProt P15735)
Summary of the method: as §1

[23] = molecular target: T6, JNK3 (Homo sapiens, UniProt P53779)
T6 construct: gene MAPK10
Summary of the method: as §1

[24] = molecular target: NEK10 (Homo sapiens, UniProt Q6ZWH5)
NEK10, sequence (Q6ZWH5 whole entry): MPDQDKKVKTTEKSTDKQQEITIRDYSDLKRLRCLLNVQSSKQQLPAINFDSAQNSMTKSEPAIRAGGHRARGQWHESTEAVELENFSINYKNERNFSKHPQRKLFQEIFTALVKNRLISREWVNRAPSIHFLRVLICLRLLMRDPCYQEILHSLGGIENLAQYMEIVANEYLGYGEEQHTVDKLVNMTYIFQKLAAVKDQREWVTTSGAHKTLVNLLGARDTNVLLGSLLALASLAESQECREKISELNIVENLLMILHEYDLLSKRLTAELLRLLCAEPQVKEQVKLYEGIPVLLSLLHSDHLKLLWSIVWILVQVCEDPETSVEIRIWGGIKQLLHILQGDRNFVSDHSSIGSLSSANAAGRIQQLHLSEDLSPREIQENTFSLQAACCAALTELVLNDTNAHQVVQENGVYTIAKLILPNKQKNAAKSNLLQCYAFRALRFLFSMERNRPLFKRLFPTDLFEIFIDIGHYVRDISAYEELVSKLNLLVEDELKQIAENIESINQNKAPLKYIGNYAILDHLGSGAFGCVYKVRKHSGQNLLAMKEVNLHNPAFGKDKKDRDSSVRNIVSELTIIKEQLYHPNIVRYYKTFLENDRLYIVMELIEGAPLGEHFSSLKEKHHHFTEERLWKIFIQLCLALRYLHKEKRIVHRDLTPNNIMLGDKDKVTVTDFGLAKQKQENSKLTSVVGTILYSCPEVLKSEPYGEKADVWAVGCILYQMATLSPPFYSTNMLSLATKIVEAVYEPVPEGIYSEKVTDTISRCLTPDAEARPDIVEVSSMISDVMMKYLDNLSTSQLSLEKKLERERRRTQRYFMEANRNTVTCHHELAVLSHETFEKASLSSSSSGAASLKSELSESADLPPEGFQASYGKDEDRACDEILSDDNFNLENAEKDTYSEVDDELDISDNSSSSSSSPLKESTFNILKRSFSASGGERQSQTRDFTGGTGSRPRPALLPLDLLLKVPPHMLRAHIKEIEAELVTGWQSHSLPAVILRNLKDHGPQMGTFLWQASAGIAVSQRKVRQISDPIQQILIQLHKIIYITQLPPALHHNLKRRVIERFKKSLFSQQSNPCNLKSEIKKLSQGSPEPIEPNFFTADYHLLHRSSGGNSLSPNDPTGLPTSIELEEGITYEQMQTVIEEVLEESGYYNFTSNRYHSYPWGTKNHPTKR
Summary of the method: as §1

inhibition at 1 µM [1]: 0% | inhibition at 1 µM [2]: 0% | inhibition at 1 µM [3]: 0% | inhibition at 1 µM [4]: 27% | inhibition at 1 µM [5]: 0% | inhibition at 1 µM [6]: 0% | inhibition at 1 µM [7]: 18% | inhibition at 1 µM [8]: 16% | inhibition at 1 µM [9]: 22% | inhibition at 1 µM [10]: 0% | inhibition at 1 µM [11]: 2% | inhibition at 1 µM [12]: 14% | inhibition at 1 µM [13]: 0% | inhibition at 1 µM [14]: 34% | inhibition at 1 µM [15]: 14% | inhibition at 1 µM [16]: 9% | inhibition at 1 µM [17]: 0% | inhibition at 1 µM [18]: 16% | inhibition at 1 µM [19]: 0% | inhibition at 1 µM [20]: 0% | inhibition at 1 µM [21]: 22% | inhibition at 1 µM [22]: 2% | inhibition at 1 µM [23]: 0% | inhibition at 1 µM [24]: 0%
Structure (SMILES): CNS(=O)(=O)c1ccc(N(C)C)c(Nc2nc(C)nc3cc(OC)c(OC)cc23)c1 [compound 15, 3-((6,7-dimethoxy-2-methylquinazolin-4-yl)amino)-4-(dimethylamino)-N-methylbenzenesulfonamide]

Reference: paper PMC7180948, “New Insights into 4-Anilinoquinazolines as Inhibitors of Cardiac Troponin I–Interacting Kinase (TNNi3K)” (Molecules, 2020)
